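Cells were grown in 96-well plates and exposed to each compound for 48 hours at five concentrations; endpoints were interpolated linearly between bracketing concentrations, or set to the highest concentration if not reached. TGI: total growth inhibition.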
Columns and labels:
Test in all cases: growth of human tumour cells (NCI), 48 h
NCI-H522 lung = tested on: NCI-H522 lung
OVCAR-4 ovarian = tested on: OVCAR-4 ovarian
HOP-92 NSCLC = tested on: HOP-92 NSCLC
MALME-3M melanoma = tested on: MALME-3M melanoma
HS 578T breast = tested on: HS 578T breast
NCI-H460 lung = tested on: NCI-H460 lung
HT29 colon = tested on: HT29 colon
LOX IMVI melanoma = tested on: LOX IMVI melanoma
SK-MEL-5 melanoma = tested on: SK-MEL-5 melanoma
SNB-19 CNS = tested on: SNB-19 CNS
IGROV1 ovarian = tested on: IGROV1 ovarian
KM12 colon = tested on: KM12 colon
MDA-N = tested on: MDA-N
NCI/ADR-RES ovarian = tested on: NCI/ADR-RES ovarian
HL-60(TB) leukemia = tested on: HL-60(TB) leukemia
RPMI-8226 leukemia = tested on: RPMI-8226 leukemia
PC-3 prostate = tested on: PC-3 prostate
TK-10 renal = tested on: TK-10 renal
HOP-62 NSCLC = tested on: HOP-62 NSCLC
UACC-62 melanoma = tested on: UACC-62 melanoma
SR leukemia = tested on: SR leukemia
MCF7 breast = tested on: MCF7 breast
SK-OV-3 ovarian = tested on: SK-OV-3 ovarian
SF-539 CNS = tested on: SF-539 CNS
K-562 leukemia = tested on: K-562 leukemia
SK-MEL-28 melanoma = tested on: SK-MEL-28 melanoma
CAKI-1 renal = tested on: CAKI-1 renal
MOLT-4 leukemia = tested on: MOLT-4 leukemia
SN12C renal = tested on: SN12C renal
A549 NSCLC = tested on: A549 NSCLC
BT-549 breast = tested on: BT-549 breast
OVCAR-8 ovarian = tested on: OVCAR-8 ovarian
MDA-MB-435 = tested on: MDA-MB-435
SK-MEL-2 melanoma = tested on: SK-MEL-2 melanoma
T-47D breast = tested on: T-47D breast
RXF 393 renal = tested on: RXF 393 renal
HCT-15 colon = tested on: HCT-15 colon
SW-620 colon = tested on: SW-620 colon
UACC-257 melanoma = tested on: UACC-257 melanoma
OVCAR-3 ovarian = tested on: OVCAR-3 ovarian
A498 renal = tested on: A498 renal
UO-31 renal = tested on: UO-31 renal
SF-268 CNS = tested on: SF-268 CNS
SF-295 CNS = tested on: SF-295 CNS
ACHN renal = tested on: ACHN renal
EKVX NSCLC = tested on: EKVX NSCLC
M14 melanoma = tested on: M14 melanoma
HCT-116 colon = tested on: HCT-116 colon
COLO 205 colon = tested on: COLO 205 colon
MDA-MB-231 breast = tested on: MDA-MB-231 breast
NCI-H23 lung = tested on: NCI-H23 lung
SNB-75 CNS = tested on: SNB-75 CNS
DU-145 prostate = tested on: DU-145 prostate
NCI-H226 lung = tested on: NCI-H226 lung
786-0 renal = tested on: 786-0 renal
U251 CNS = tested on: U251 CNS
OVCAR-5 ovarian = tested on: OVCAR-5 ovarian
CCRF-CEM leukemia = tested on: CCRF-CEM leukemia

Question: Which results are given for `NS(=O)(=O)c1ccc(N=Nc2ncccc2O)cc1`?
Answer: TGI (NCI-H522 lung): > 100 µM; TGI (OVCAR-4 ovarian): > 100 µM; TGI (HOP-92 NSCLC): > 100 µM; TGI (MALME-3M melanoma): > 100 µM; TGI (HS 578T breast): > 100 µM; TGI (NCI-H460 lung): > 100 µM; TGI (HT29 colon): > 100 µM; TGI (LOX IMVI melanoma): > 100 µM; TGI (SK-MEL-5 melanoma): > 100 µM; TGI (SNB-19 CNS): > 100 µM; TGI (IGROV1 ovarian): > 100 µM; TGI (KM12 colon): > 100 µM; TGI (MDA-N): > 100 µM; TGI (NCI/ADR-RES ovarian): > 100 µM; TGI (HL-60(TB) leukemia): > 100 µM; TGI (RPMI-8226 leukemia): > 100 µM; TGI (PC-3 prostate): > 100 µM; TGI (TK-10 renal): > 100 µM; TGI (HOP-62 NSCLC): > 100 µM; TGI (UACC-62 melanoma): > 100 µM; TGI (SR leukemia): 71.9 µM; TGI (MCF7 breast): > 100 µM; TGI (SK-OV-3 ovarian): > 100 µM; TGI (SF-539 CNS): > 100 µM; TGI (K-562 leukemia): > 100 µM; TGI (SK-MEL-28 melanoma): > 100 µM; TGI (CAKI-1 renal): > 100 µM; TGI (MOLT-4 leukemia): 87.8 µM; TGI (SN12C renal): > 100 µM; TGI (A549 NSCLC): > 100 µM; TGI (BT-549 breast): > 100 µM; TGI (OVCAR-8 ovarian): > 100 µM; TGI (MDA-MB-435): > 100 µM; TGI (SK-MEL-2 melanoma): > 100 µM; TGI (T-47D breast): > 100 µM; TGI (RXF 393 renal): > 100 µM; TGI (HCT-15 colon): > 100 µM; TGI (SW-620 colon): > 100 µM; TGI (UACC-257 melanoma): > 100 µM; TGI (OVCAR-3 ovarian): > 100 µM; TGI (A498 renal): > 100 µM; TGI (UO-31 renal): > 100 µM; TGI (SF-268 CNS): > 100 µM; TGI (SF-295 CNS): > 100 µM; TGI (ACHN renal): > 100 µM; TGI (EKVX NSCLC): > 100 µM; TGI (M14 melanoma): > 100 µM; TGI (HCT-116 colon): > 100 µM; TGI (COLO 205 colon): > 100 µM; TGI (MDA-MB-231 breast): > 100 µM; TGI (NCI-H23 lung): > 100 µM; TGI (SNB-75 CNS): > 100 µM; TGI (DU-145 prostate): > 100 µM; TGI (NCI-H226 lung): > 100 µM; TGI (786-0 renal): > 100 µM; TGI (U251 CNS): > 100 µM; TGI (OVCAR-5 ovarian): > 100 µM

Question: Which TGI (NCI-H522 lung) does the source give for `O=C(c1ccccc1)c1ccc2nc(-c3c(Cl)c(Cl)c(Cl)c(Cl)c3C(=O)N/N=C\C=C\c3ccccc3)[nH]c2c1` here?
Answer: Its TGI is > 100 µM.

Question: What about the TGI (OVCAR-4 ovarian) of the same compound?
Answer: Its TGI is > 100 µM.

Question: And the TGI (HOP-92 NSCLC)?
Answer: The TGI was > 100 µM.

Question: What about the TGI (MALME-3M melanoma) of the same compound?
Answer: Its TGI is > 100 µM.

Question: And the TGI (HS 578T breast)?
Answer: Its TGI is > 100 µM.

Question: What about the TGI (HT29 colon) of the same compound?
Answer: Its TGI is > 100 µM.

Question: What about the TGI (LOX IMVI melanoma) of the same compound?
Answer: Its TGI is > 100 µM.

Question: What about the TGI (SK-MEL-5 melanoma) of the same compound?
Answer: Its TGI is > 100 µM.

Question: And the TGI (SNB-19 CNS)?
Answer: Its TGI is > 100 µM.

Question: What about the TGI (IGROV1 ovarian) of the same compound?
Answer: The TGI was > 100 µM.

Question: What about the TGI (KM12 colon) of the same compound?
Answer: The TGI was > 100 µM.

Question: And the TGI (CCRF-CEM leukemia)?
Answer: Its TGI is 86.8 µM.

Question: And the TGI (MDA-N)?
Answer: The TGI was > 100 µM.

Question: What about the TGI (NCI/ADR-RES ovarian) of the same compound?
Answer: Its TGI is > 100 µM.

Question: What about the TGI (HL-60(TB) leukemia) of the same compound?
Answer: The TGI was > 100 µM.

Question: And the TGI (RPMI-8226 leukemia)?
Answer: The TGI was 64 µM.

Question: What about the TGI (PC-3 prostate) of the same compound?
Answer: Its TGI is > 100 µM.

Question: What about the TGI (TK-10 renal) of the same compound?
Answer: Its TGI is > 100 µM.

Question: What about the TGI (HOP-62 NSCLC) of the same compound?
Answer: The TGI was > 100 µM.

Question: And the TGI (SR leukemia)?
Answer: Its TGI is 97.4 µM.

Question: What about the TGI (MCF7 breast) of the same compound?
Answer: The TGI was > 100 µM.

Question: And the TGI (SK-OV-3 ovarian)?
Answer: The TGI was > 100 µM.

Question: What about the TGI (SF-539 CNS) of the same compound?
Answer: The TGI was > 100 µM.

Question: And the TGI (K-562 leukemia)?
Answer: Its TGI is > 100 µM.

Question: And the TGI (SK-MEL-28 melanoma)?
Answer: The TGI was > 100 µM.

Question: And the TGI (CAKI-1 renal)?
Answer: Its TGI is > 100 µM.

Question: And the TGI (MOLT-4 leukemia)?
Answer: The TGI was > 100 µM.

Question: What about the TGI (SN12C renal) of the same compound?
Answer: The TGI was > 100 µM.

Question: What about the TGI (A549 NSCLC) of the same compound?
Answer: Its TGI is > 100 µM.

Question: And the TGI (BT-549 breast)?
Answer: The TGI was > 100 µM.

Question: What about the TGI (OVCAR-8 ovarian) of the same compound?
Answer: The TGI was > 100 µM.

Question: And the TGI (MDA-MB-435)?
Answer: Its TGI is > 100 µM.

Question: And the TGI (SK-MEL-2 melanoma)?
Answer: Its TGI is > 100 µM.

Question: And the TGI (T-47D breast)?
Answer: Its TGI is > 100 µM.

Question: What about the TGI (RXF 393 renal) of the same compound?
Answer: Its TGI is 95.3 µM.

Question: What about the TGI (HCT-15 colon) of the same compound?
Answer: Its TGI is > 100 µM.

Question: What about the TGI (SW-620 colon) of the same compound?
Answer: The TGI was > 100 µM.

Question: And the TGI (UACC-257 melanoma)?
Answer: Its TGI is > 100 µM.

Question: What about the TGI (OVCAR-3 ovarian) of the same compound?
Answer: The TGI was 84.8 µM.

Question: What about the TGI (UO-31 renal) of the same compound?
Answer: The TGI was > 100 µM.

Question: What about the TGI (SF-268 CNS) of the same compound?
Answer: Its TGI is > 100 µM.

Question: What about the TGI (SF-295 CNS) of the same compound?
Answer: The TGI was > 100 µM.

Question: And the TGI (ACHN renal)?
Answer: Its TGI is > 100 µM.

Question: What about the TGI (EKVX NSCLC) of the same compound?
Answer: Its TGI is > 100 µM.

Question: And the TGI (M14 melanoma)?
Answer: The TGI was > 100 µM.

Question: What about the TGI (HCT-116 colon) of the same compound?
Answer: The TGI was > 100 µM.

Question: And the TGI (COLO 205 colon)?
Answer: Its TGI is > 100 µM.

Question: What about the TGI (MDA-MB-231 breast) of the same compound?
Answer: The TGI was > 100 µM.

Question: And the TGI (NCI-H23 lung)?
Answer: Its TGI is > 100 µM.

Question: What about the TGI (SNB-75 CNS) of the same compound?
Answer: The TGI was > 100 µM.

Question: What about the TGI (DU-145 prostate) of the same compound?
Answer: Its TGI is > 100 µM.

Question: And the TGI (NCI-H226 lung)?
Answer: The TGI was > 100 µM.

Question: And the TGI (786-0 renal)?
Answer: Its TGI is > 100 µM.

Question: And the TGI (U251 CNS)?
Answer: Its TGI is > 100 µM.

Question: And the TGI (OVCAR-5 ovarian)?
Answer: The TGI was > 100 µM.
